Publication PMC9612005 (Pharmaceutics, 2022)
pEC50: −log10 of the molar value.

Key:
[1] = biological target: T1, cone CNG channels (CNGA3:CNGB3) (Homo sapiens, UniProt Q16281+Q9NQW8); test: Patch-clamp on inside-out patches, heterotetrameric cone CNG channels expressed in Xenopus laevis oocytes; format: cell-based; details: for effect on cGMP-activated cone CNG-channel activity: analogue(s) co-applied with cGMP (50 µM; combination 50 µM inhibitor + activator); for pEC50: concentration-activation relationship, Hill fit, read-out: EC50, cone CNG channels; for efficacy in activating cone CNG channels compared to cGMP: related to maximal cGMP-induced current
T1 construct: expressed in transfected cells; host or cells: Xenopus laevis oocytes (cRNA injection, pGEMHE vector); inside-out patches
T1 sequence (Q16281 1-694): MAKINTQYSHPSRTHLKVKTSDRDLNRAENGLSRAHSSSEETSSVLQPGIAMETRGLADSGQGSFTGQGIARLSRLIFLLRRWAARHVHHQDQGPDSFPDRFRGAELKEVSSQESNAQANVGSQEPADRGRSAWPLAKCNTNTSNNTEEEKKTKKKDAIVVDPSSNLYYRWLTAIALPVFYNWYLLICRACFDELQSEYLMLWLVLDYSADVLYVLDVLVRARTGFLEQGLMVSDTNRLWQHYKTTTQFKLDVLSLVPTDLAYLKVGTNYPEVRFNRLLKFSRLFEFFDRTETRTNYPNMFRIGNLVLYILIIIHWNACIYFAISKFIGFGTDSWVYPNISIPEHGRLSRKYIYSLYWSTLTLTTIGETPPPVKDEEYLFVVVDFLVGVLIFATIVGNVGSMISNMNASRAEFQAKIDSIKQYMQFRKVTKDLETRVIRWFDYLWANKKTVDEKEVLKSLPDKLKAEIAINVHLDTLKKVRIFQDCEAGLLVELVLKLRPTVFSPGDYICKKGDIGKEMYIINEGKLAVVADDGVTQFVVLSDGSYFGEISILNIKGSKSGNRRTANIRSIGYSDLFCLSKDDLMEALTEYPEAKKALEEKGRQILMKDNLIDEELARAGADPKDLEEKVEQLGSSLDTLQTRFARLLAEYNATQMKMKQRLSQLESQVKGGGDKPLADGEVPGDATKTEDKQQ
T1 sequence (Q9NQW8 1-809): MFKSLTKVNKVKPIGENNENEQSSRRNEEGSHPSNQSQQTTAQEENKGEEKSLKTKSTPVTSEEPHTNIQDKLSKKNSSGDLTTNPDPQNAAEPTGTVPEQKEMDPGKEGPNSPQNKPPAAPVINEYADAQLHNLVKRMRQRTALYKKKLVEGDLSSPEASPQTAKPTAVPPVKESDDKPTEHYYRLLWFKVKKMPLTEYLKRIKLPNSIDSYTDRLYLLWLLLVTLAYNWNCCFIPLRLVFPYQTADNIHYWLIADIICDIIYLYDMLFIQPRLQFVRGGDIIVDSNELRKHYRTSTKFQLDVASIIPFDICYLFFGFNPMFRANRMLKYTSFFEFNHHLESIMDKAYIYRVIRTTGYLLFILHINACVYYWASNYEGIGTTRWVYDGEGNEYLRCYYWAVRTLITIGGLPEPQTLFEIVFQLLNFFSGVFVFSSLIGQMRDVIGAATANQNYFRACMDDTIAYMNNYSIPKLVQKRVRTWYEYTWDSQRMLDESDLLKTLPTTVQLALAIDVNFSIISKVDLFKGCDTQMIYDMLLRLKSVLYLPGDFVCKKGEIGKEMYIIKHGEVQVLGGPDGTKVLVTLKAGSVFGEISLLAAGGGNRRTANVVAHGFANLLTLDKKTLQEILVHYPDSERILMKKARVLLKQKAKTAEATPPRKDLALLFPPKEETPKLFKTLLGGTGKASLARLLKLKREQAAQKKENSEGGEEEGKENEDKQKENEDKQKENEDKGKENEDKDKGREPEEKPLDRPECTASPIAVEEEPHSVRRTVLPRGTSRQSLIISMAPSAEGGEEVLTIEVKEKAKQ
Description: (§1) The patch pipettes were pulled from borosilicate glass tubing (outer diameter 2.0 mm, inner diameter 1.0 mm; Hilgenberg GmbH, Malsfeld, Germany). The initial resistance of the solution-filled pipettes was 0.6–1.4 MΩ. […] For studying the activation and deactivation kinetics of CNG channels, we performed fast jumps between different ligand concentrations by means of a double-barreled θ-glass pipette mounted on a piezo-driven device, which was controlled by the computer. For measuring the time courses, the recording rate was 20 kHz.
The activation and deactivation time courses were determined by fitting the respective current traces with single exponentials:(3) I(t)=A∗exp[−t/τ] where A is the amplitude, t the time, and τ the time constant for either activation or deactivation.

[2] = biological target: T2, rod CNG channels (CNGA1:CNGB1a) (Bos taurus, UniProt Q00194+Q28181); test: Patch-clamp on inside-out patches, heterotetrameric rod CNG channels expressed in Xenopus laevis oocytes; format: cell-based, bovine; details: for effect on cGMP-activated rod CNG-channel activity: analogue(s) co-applied with cGMP (50 µM; combination 50 µM inhibitor + activator); for efficacy in activating rod CNG channels compared to cGMP: related to maximal cGMP-induced current
T2 construct: expressed in transfected cells; host or cells: Xenopus laevis oocytes (cRNA injection, pGEMHE vector); inside-out patches
Description: as §1, with “kHz. […]” for “kHz.”

CNG-channel in rods = test system: CNG-channel in rods; set-up: method as in PMID 8778280; details: previous study, ref [44]; cited from earlier work
[3] = 100 µM, +100 mV, activity triggered by 3 mM cGMP
[4] = cGMP + 50 µM of the cGMP analogue

T2 sequence (Q00194 whole entry): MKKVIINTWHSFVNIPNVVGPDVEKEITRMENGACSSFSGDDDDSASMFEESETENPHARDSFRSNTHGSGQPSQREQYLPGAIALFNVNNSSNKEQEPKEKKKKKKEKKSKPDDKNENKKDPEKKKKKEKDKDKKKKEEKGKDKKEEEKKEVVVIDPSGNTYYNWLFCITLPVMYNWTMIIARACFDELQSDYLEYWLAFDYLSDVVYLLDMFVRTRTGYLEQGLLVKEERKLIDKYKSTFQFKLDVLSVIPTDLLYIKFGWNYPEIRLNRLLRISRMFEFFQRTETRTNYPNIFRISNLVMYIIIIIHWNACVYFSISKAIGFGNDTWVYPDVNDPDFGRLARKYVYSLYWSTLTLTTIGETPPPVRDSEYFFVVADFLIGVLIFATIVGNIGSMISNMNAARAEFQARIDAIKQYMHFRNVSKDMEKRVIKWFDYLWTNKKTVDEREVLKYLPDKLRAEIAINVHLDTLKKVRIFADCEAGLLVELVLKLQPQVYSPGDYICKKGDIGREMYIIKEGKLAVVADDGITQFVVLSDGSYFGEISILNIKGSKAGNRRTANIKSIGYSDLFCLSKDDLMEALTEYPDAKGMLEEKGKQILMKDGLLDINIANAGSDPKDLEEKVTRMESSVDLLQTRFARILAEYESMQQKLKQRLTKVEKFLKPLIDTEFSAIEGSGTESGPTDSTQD
T2 sequence (Q28181 whole entry): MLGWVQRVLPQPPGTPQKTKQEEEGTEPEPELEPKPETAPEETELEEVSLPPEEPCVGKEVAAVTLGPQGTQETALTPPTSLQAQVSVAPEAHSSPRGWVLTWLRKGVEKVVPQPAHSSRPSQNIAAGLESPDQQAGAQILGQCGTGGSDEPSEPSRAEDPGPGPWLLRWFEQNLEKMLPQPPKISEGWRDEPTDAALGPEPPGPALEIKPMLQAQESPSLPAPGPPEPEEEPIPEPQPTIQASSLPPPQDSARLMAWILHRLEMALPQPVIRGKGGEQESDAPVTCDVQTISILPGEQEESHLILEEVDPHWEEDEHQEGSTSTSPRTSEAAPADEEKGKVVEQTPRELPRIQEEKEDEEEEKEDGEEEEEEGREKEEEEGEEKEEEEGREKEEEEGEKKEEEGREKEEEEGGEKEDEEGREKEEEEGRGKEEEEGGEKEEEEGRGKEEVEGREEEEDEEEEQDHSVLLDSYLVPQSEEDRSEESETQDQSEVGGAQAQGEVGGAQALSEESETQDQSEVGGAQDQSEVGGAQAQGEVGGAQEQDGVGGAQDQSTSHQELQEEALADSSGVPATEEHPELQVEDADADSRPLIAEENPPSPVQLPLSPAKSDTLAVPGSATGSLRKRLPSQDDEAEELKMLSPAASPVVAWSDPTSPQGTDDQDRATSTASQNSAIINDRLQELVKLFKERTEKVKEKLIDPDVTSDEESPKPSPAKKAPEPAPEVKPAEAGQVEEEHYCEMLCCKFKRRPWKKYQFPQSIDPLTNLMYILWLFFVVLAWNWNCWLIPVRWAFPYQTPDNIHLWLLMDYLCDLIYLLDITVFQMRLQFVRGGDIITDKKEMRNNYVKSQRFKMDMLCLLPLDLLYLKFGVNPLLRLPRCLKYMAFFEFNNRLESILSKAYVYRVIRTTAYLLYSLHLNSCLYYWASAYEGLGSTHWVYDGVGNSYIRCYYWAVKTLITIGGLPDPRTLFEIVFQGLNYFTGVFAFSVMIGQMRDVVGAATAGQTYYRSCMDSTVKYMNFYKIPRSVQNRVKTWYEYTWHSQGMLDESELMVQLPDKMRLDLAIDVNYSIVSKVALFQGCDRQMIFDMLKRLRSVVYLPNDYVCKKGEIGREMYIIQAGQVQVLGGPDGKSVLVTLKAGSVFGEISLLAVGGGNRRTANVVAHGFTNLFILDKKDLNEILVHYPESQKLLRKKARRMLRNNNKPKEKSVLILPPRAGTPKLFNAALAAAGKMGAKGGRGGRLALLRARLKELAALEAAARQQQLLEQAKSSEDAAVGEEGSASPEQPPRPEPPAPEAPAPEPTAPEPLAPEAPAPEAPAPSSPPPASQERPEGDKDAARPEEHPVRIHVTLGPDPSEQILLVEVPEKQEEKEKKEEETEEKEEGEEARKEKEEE

| H (Hill coefficient), cone CNG channels [1, 4] | H (Hill coefficient), rod CNG channels [2, 4] | efficacy in activating cone CNG channels compared to cGMP ([1]; +100 mV) | efficacy in activating rod CNG channels compared to cGMP ([2]; +100 mV) | SMILES | effect on cGMP-activated cone CNG-channel activity [1] | other results |
| --- | --- | --- | --- | --- | --- | --- |
| 1.04 | 1.23 | drastically reduced the efficacy | drastically reduced the efficacy | Nc1nc2c(nc(Sc3ccc(Cl)cc3)n2[C@@H]2O[C@@H]3CO[P@@](=O)(S)O[C@H]3[C@H]2O)c(=O)[nH]1 [Rp-8-pCPT-cGMPS] | their activity at physiological cGMP increased, and at higher cGMP levels decreased | maximal CNG-channel activation in rods (CNG-channel in rods): ~ 93%; effect on cGMP-activated rod CNG-channel activity [2]: their activity at physiological cGMP increased, and at higher cGMP levels decreased |
| 1.84 | 1.68 | lower efficacy than cGMP | lower efficacy than cGMP | O=c1c2ncn([C@@H]3O[C@@H]4CO[P@@](=O)(S)O[C@H]4[C@H]3O)c2nc2[nH]c(-c3ccc4ccccc4c3)cn12 [Rp-(2-N)ET-cGMPS] | – | – |
| 1.13 | 1.52 | lower efficacy than cGMP | lower efficacy than cGMP | Nc1nc2c(ncn2[C@@H]2O[C@@H]3CO[P@@](=O)(S)O[C@H]3[C@H]2O)c(=O)[nH]1 [Rp-cGMPS] | did not influence the activity of cone channels | – |
| 1.64 | 2.06 | lower efficacy than cGMP | lower efficacy than cGMP | O=C1Cn2c(nc3c(nc(Br)n3[C@@H]3O[C@@H]4CO[P@@](=O)(S)O[C@H]4[C@H]3O)c2=O)N1 [Rp-ß-1,N2-Ac-Br-cGMPS, Rp-ß-1,N^2-Ac-Br-cGMPS] | did not influence the activity of cone channels | – |

The remaining lines, values behind:

| SMILES | H (Hill coefficient), cone CNG channels [1, 4] | H (Hill coefficient), rod CNG channels [2, 4] | efficacy in activating cone CNG channels compared to cGMP ([1]; +100 mV) | efficacy in activating rod CNG channels compared to cGMP ([2]; +100 mV) | effect on cGMP-activated cone CNG-channel activity [1] | other results |
| --- | --- | --- | --- | --- | --- | --- |
| COc1ccc([C@H]2Sc3ccccc3N(CCN(C)C)C(=O)[C@H]2OC(C)=O)cc1 (relative stereo) [L-cis-diltiazem, reference compound] | – | – | – | – | – | block of cone CNG channel activity [1, 3]: ~ 63.4%; block of rod CNG channel activity [2, 3]: ~ 90.5% |
| O=c1c2nc(Br)n([C@@H]3O[C@@H]4COP(=O)(O)O[C@H]4[C@H]3O)c2nc2[nH]c(-c3ccccc3)cn12 [8-Br-PET-cGMP] | 1.5 | 1.05 | – | – | under physiological cGMP it produced a potentiation of retinal CNG-channel activity, whereas at higher cGMP it caused minor inhibition | effect on cGMP-activated rod CNG-channel activity [2]: under physiological cGMP it produced a potentiation of retinal CNG-channel activity, whereas at higher cGMP it caused minor inhibition; Emax ([2]; read-out: efficacy of activating rod channel, of maximal activation): < 1% |
| Nc1nc2c(nc(Br)n2[C@@H]2O[C@@H]3COP(=O)(O)O[C@H]3[C@H]2O)c(=O)[nH]1 [8-Br-cGMP] | – | – | – | – | – | H (Hill coefficient), cone CNG channels ([1]; ligand alone): 1.94; pEC50 ([1]; ligand alone): 5.98; H (Hill coefficient), rod CNG channels ([2]; ligand alone): 2.1; pEC50 ([2]; ligand alone, concentration-activation relationship, Hill fit, read-out: EC50, rod CNG channels): 5.18 |
| O=c1c2ncn([C@@H]3O[C@@H]4COP(=O)(O)O[C@H]4[C@H]3O)c2nc2[nH]c(-c3ccccc3)cn12 [PET-cGMP] | – | – | partial agonist | partial agonist | – | – |
| O=c1c2nc(Br)n([C@@H]3O[C@@H]4CO[P@@](=O)(S)O[C@H]4[C@H]3O)c2nc2[nH]c(-c3ccc4ccccc4c3)cn12 [Rp-8-Br-(2-N)ET-cGMPS] | 1.53 | 1.66 | lower efficacy than cGMP | lower efficacy than cGMP | – | – |
| Nc1nc2c(ncn2[C@@H]2O[C@@H]3COP(=O)(O)O[C@H]3[C@H]2O)c(=O)[nH]1 [cGMP, reference compound] | – | – | – | – | – | deactivation time constant τdeact, cone CNG channels ([1]; 5 µM cGMP alone or 5 µM cGMP + 50 µM inhibitor + 0.1 µM activator, concentration jump): 80.6 ± 4.6 ms; H (Hill coefficient), cone CNG channels ([1]; ligand alone): 1.47; pEC50 ([1]; ligand alone): 4.96; H (Hill coefficient), rod CNG channels ([2]; ligand alone): 2.1 |
